Test results reported in ChEMBL document CHEMBL3804790, “Fragment-Based Approaches to the Development of Mycobacterium tuberculosis CYP121 Inhibitors” (J Med Chem, 2016).

Legend:
[1] = target: T1, Mycocyclosin synthase (Mycobacterium tuberculosis, UniProt P9WPP7); design: species or system C41(DE3)
T1 sequence (P9WPP7 whole entry): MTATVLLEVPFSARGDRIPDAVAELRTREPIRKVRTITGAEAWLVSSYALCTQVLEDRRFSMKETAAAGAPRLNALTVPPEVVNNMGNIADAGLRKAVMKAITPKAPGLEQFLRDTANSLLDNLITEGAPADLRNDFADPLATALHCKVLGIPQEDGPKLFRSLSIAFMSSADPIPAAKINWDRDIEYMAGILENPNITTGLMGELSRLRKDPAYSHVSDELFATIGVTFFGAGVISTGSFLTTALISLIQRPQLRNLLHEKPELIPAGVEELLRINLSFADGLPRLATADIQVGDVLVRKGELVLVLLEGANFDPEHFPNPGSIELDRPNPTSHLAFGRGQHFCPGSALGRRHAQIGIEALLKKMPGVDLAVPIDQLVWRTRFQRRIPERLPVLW

[2] = tested on: Mycobacterium tuberculosis; test: Antimycobacterial activity against Mycobacterium tuberculosis H37Rv assessed as bacterial growth inhibition after 2 weeks; format: functional; conditions: 336 h
[3] = target: Cytochrome P450 2D6 (Homo sapiens, UniProt P10635); test: Inhibition of CYP2D6 in human liver microsomes using dextromethorphan as substrate by LC-MS/MS analysis; format: ADME
[4] = tested on: CYP1A (relative to Mycobacterium tuberculosis CYP121); test: in vitro; conditions: human, c41(de3)
Description: Selectivity ratio of IC50 for human CYP1A to Kd for Mycobacterium tuberculosis His6-tagged CYP121 expressed in Escherichia coli C41 (DE3) cells

[5] = target: T1, Mycocyclosin synthase; design: species or system C41(DE3); remark: listed apart in the source
[6] = Inhibition of CYP1A1/CYP1A2 in human liver microsomes using ethoxyresorufin as substrate by fluorescence analysis; format: ADME
[7] = target: Cytochrome P450 2C19 (Homo sapiens, UniProt P33261); test: Inhibition of CYP2C19 in human liver microsomes using mephenytoin as substrate by LC-MS/MS analysis; format: ADME
[8] = target: T2, Steroid C26-monooxygenase (Mycobacterium tuberculosis, UniProt P9WPP1); design: species or system C41(DE3)
T2 sequence (P9WPP1 whole entry): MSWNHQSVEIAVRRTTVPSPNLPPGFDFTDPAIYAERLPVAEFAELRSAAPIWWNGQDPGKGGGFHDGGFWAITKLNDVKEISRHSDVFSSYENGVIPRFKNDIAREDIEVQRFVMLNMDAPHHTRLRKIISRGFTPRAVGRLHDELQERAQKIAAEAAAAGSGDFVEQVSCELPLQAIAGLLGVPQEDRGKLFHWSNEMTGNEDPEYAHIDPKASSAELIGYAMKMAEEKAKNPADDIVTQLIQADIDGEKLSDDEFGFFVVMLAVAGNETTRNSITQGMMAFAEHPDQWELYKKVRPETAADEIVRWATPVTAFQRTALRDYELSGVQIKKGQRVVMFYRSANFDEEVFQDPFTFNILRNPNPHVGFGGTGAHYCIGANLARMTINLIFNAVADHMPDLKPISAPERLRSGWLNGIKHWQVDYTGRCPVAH

[9] = target: Cytochrome P450 2C9 (Homo sapiens, UniProt P11712); test: Inhibition of CYP2C9 in human liver microsomes using tolbutamide as substrate by LC-MS/MS analysis; format: ADME
[10] = target: T3, Methyl-branched lipid omega-hydroxylase (Mycobacterium tuberculosis (strain ATCC 25618 / H37Rv), UniProt P9WPP3); design: species or system C41(DE3)
T3 sequence (P9WPP3 whole entry): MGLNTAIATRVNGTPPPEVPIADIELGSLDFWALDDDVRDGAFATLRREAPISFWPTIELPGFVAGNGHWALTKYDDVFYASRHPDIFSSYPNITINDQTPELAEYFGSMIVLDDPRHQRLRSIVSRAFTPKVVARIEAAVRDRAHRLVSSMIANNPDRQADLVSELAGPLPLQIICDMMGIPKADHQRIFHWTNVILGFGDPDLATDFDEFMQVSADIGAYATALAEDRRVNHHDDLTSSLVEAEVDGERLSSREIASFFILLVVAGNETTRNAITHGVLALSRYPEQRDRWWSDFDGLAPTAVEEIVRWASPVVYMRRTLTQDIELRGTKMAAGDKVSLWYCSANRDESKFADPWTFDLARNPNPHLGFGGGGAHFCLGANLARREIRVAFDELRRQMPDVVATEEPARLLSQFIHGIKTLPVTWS

[11] = target: Cytochrome P450 3A4 (Homo sapiens, UniProt P08684)
Cytochrome P450 3A4, sequence (P08684 whole entry): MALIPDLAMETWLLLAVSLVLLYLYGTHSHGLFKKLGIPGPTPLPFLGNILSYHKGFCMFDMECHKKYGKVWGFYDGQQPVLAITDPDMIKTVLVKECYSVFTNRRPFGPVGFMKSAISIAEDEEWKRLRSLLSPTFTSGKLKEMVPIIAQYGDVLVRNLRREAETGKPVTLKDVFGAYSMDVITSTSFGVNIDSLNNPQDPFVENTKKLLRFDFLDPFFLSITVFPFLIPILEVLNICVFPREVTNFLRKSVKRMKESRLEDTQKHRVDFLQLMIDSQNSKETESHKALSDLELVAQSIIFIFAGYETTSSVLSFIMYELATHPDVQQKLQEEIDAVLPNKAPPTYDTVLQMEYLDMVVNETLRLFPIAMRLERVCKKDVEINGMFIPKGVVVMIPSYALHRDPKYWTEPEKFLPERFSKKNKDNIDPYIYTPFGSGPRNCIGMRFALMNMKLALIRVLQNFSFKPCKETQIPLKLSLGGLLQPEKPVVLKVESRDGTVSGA
Description: Inhibition of CYP3A4 in human liver microsomes using midazolam as substrate by LC-MS/MS analysis

Cytochrome P450 2C9, sequence (P11712 whole entry): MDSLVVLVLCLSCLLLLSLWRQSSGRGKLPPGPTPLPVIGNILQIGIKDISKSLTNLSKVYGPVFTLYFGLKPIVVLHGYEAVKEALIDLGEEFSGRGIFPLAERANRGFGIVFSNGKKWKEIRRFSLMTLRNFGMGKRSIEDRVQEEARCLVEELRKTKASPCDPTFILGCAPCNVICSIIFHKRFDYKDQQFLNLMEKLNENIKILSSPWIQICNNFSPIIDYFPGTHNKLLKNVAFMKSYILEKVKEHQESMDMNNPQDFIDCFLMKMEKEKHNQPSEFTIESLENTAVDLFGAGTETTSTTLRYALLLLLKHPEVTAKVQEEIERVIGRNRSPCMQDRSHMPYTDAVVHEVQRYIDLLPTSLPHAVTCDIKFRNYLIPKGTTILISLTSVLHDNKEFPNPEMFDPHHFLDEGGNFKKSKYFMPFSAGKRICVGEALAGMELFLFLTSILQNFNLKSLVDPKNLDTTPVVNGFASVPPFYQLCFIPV
Cytochrome P450 2D6, sequence (P10635 whole entry): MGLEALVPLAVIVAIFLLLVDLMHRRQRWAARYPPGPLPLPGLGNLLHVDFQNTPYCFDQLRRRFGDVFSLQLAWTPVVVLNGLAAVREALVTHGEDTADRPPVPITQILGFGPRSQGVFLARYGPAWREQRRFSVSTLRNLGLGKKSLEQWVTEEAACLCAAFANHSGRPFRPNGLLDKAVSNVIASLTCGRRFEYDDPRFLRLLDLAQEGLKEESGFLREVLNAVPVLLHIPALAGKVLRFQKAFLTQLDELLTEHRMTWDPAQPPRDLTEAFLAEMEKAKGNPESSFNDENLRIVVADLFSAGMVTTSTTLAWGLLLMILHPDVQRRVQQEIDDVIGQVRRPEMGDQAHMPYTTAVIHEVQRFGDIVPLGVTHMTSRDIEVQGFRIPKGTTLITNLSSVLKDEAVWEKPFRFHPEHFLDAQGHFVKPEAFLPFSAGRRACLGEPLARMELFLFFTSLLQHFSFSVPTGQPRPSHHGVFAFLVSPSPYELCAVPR
Cytochrome P450 2C19, sequence (P33261 whole entry): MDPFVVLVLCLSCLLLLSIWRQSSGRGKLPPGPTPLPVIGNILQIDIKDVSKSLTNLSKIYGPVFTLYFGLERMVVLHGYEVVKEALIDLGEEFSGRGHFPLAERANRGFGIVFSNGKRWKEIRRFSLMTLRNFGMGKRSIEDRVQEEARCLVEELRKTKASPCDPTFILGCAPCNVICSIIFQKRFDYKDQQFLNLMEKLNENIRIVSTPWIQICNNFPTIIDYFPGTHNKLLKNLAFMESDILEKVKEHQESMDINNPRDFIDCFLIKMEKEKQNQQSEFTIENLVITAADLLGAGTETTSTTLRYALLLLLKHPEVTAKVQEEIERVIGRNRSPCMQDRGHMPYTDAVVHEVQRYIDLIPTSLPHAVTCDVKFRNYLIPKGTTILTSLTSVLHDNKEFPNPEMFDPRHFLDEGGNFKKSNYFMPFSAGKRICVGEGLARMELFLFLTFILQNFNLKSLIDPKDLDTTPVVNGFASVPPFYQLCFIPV

Compound: Nc1[nH]nc(-c2cccc(F)c2)c1-c1ccc(O)cc1
- Kd ([1]; read-out: Kd): 252 µM

Compound: NC(=O)c1cc(Cl)ccc1N
- Kd ([1]; read-out: Kd): 3400 µM

Compound: Oc1ccc(-c2n[nH]c(NCc3ccncc3)c2-c2ccc(O)cc2)cc1
- Kd ([1]; read-out: Kd): 240 µM

Compound: COc1ccc(-c2cn[nH]c2N)cc1-c1cccc(N)c1
- Kd ([1]; read-out: Kd): 68 µM

Compound: Oc1ccc(-c2n[nH]c(NCc3ccc4[nH]ccc4c3)c2-c2ccc(O)cc2)cc1
- Kd ([1]; read-out: Kd): 60 µM

Compound: Nc1[nH]nc(-c2cccc(O)c2)c1-c1ccc(O)cc1
- Kd ([1]; read-out: Kd): 60 µM

Compound: Nc1[nH]nc(-c2ccc(O)cc2)c1-c1ccc(O)cc1
- MIC90 [2]: ≥ 50 µM
- Kd ([1]; read-out: Kd): 40 µM

Compound: Oc1ccc(-c2n[nH]c(NCc3ccsc3)c2-c2ccc(O)cc2)cc1
- Kd ([1]; read-out: Kd): 18 µM

Compound: Nc1cccc(-c2cccc(-c3c(-c4ccc(O)cc4)n[nH]c3N)c2)c1
- IC50 [3]: > 25 µM
- selectivity ratio [4]: 1430
- Kd [5]: 0.015 µM
- IC50 [6]: 21.4 µM
- IC50 [7]: > 25 µM
- MIC90 [2]: ≥ 50 µM
- Kd ([1]; read-out: Kd): 0.74 µM
- Kd [8]: 18.4 µM
- IC50 [9]: > 25 µM
- Kd [10]: 860 nM
- IC50 [11]: 11.3 µM

Compound: Oc1ccc(-c2n[nH]c(NCc3c[nH]cn3)c2-c2ccc(O)cc2)cc1
- Kd ([1]; read-out: Kd): 275 µM

Compound: Nc1cccc(Cn2cncn2)c1
- Kd ([1]; read-out: Kd): 1600 µM

Compound: Cc1ccc2cc(N)ccc2n1
- Kd ([1]; read-out: Kd): 400 µM

Compound: Nc1[nH]ncc1-c1ccc(O)cc1
- Kd ([1]; read-out: Kd): 1870 µM

Compound: Oc1ccc(-c2n[nH]c(NCc3cccc4[nH]ncc34)c2-c2ccc(O)cc2)cc1
- Kd ([1]; read-out: Kd): 45 µM

Compound: O=C(Nc1[nH]nc(-c2ccc(O)cc2)c1-c1ccc(O)cc1)c1ccccc1
- Kd ([1]; read-out: Kd): 160 µM

Compound: COc1ccc(-c2n[nH]c(N)c2-c2cccc(-c3cccc(N)c3)c2)cc1
- Kd [5]: 0.034 µM
- MIC90 [2]: ≥ 50 µM
- Kd ([1]; c41(de3)): ND(Insoluble)

Compound: Nc1[nH]nc(-c2ccc(O)cc2O)c1-c1ccc(O)cc1
- Kd ([1]; read-out: Kd): 181 µM

Compound: Oc1ccc(-n2cncn2)cc1
- Kd ([1]; read-out: Kd): 1700 µM

Compound: O=C(Nc1[nH]nc(-c2ccc(O)cc2)c1-c1ccc(O)cc1)c1ccc(O)cc1
- Kd ([1]; read-out: Kd): 78 µM

Compound: Nc1ccc(-c2cccc(-c3cn[nH]c3N)c2)cc1
- Kd [5]: 230 µM

Compound: O=C(Nc1[nH]nc(-c2ccc(O)cc2)c1-c1ccc(O)cc1)c1ccncc1
- Kd ([1]; read-out: Kd): 600 µM

Compound: Oc1ccc(CNc2[nH]nc(-c3ccc(O)cc3)c2-c2ccc(O)cc2)cc1
- IC50 [3]: > 25 µM
- IC50 [6]: > 25 µM
- IC50 [7]: > 25 µM
- MIC90 [2]: ≥ 50 µM
- Kd ([1]; read-out: Kd): 6.3 µM
- IC50 [9]: > 25 µM
- IC50 [11]: > 25 µM

Compound: Oc1ccc(Nc2[nH]nc(-c3ccc(O)cc3)c2-c2ccc(O)cc2)cc1
- Kd ([1]; read-out: Kd): 15 µM

Compound: Nc1cc(-c2ccc(O)cc2)n[nH]1
- Kd ([1]; read-out: Kd): 1300 µM

Compound: Oc1ccc(Nc2cc(-c3ccc(O)cc3)[nH]n2)cc1
- Kd ([1]; read-out: Kd): 10.6 µM

Compound: Nc1cccc(-c2cc(-c3cn[nH]c3N)ccc2OCc2ccccc2)c1
- Kd ([1]; read-out: Kd): 28 µM

Compound: Oc1ccc(-c2n[nH]c(NCc3ccc(O)c(Br)c3)c2-c2ccc(O)cc2)cc1
- Kd ([1]; read-out: Kd): 19 µM

Compound: Nc1cccc(-c2cc(-c3c(-c4ccc(O)cc4)n[nH]c3N)ccc2O)c1
- MIC90 [2]: ≥ 50 µM

Compound: Oc1ccc(-c2n[nH]c(NCc3ccco3)c2-c2ccc(O)cc2)cc1
- Kd ([1]; read-out: Kd): 24 µM

Compound: Nc1cccc(-c2cccc(-c3cn[nH]c3N)c2)c1
- IC50 [3]: > 25 µM
- selectivity ratio [4]: 0.09
- Kd [5]: 14 µM
- IC50 [6]: 1.22 µM
- IC50 [7]: > 25 µM
- MIC90 [2]: ≥ 50 µM
- Kd ([1]; read-out: Kd): 140 µM
- IC50 [9]: > 25 µM
- IC50 [11]: > 25 µM
